Reference: the CheMixHub viscosity set

Experiment: xn = mol fraction of the nth substance listed

C1CCC2CCCCC2C1 (centres undefined) + CC(C)CC(C)(C)C
viscosity [mPa·s], 101 kPa
Conditions	x2 = 0.1031	x2 = 0.1995	x2 = 0.299	x2 = 0.4001	x2 = 0.5004	x2 = 0.6002	x2 = 0.6994	x2 = 0.8002	x2 = 0.899
293.15 K	2.019	1.701	1.435	1.203	1.026	0.876	0.758	0.656	0.571
298.15 K	1.842	1.561	1.323	1.114	0.955	0.818	0.711	0.62	0.54
303.15 K	1.688	1.436	1.223	1.034	0.89	0.765	0.667	0.581	0.509
308.15 K	1.553	1.327	1.135	0.963	0.831	0.717	0.627	0.547	0.482
313.15 K	1.434	1.23	1.056	0.905	0.778	0.673	0.59	0.516	0.456
318.15 K	1.328	1.142	0.983	0.838	0.727	0.63	0.552	0.483	0.425
323.15 K	1.234	1.066	0.921	0.788	0.686	0.597	0.525	0.461	0.408

CCCCCCCCCCCCCC + CC(C)CC(C)(C)C
298.15 K, 101 kPa
Conditions	viscosity [mPa·s]
x2 = 0.1084	1.813
x2 = 0.1551	1.724
x2 = 0.1801	1.702
x2 = 0.2807	1.483
x2 = 0.4042	1.265
x2 = 0.5162	1.086
x2 = 0.6304	0.9193
x2 = 0.7095	0.8085
x2 = 0.7868	0.7168
x2 = 0.8111	0.6841
x2 = 0.8616	0.6216
x2 = 0.9166	0.5603
x2 = 0.9516	0.5263
x2 = 0.9768	0.5023

ClC(Cl)=C(Cl)Cl + CC(C)CCO
303.15 K, 101.33 kPa
Conditions	viscosity [mPa·s]
x1 = 0.0975	2.635
x1 = 0.2467	2.045
x1 = 0.3283	1.773
x1 = 0.4163	1.524
x1 = 0.5256	1.293
x1 = 0.6182	1.148
x1 = 0.7334	1.013
x1 = 0.8214	0.934
x1 = 0.9161	0.864

CC(C)CCl + CC(C)CO
viscosity [mPa·s], 101.33 kPa
Conditions	x1 = 0.1154	x1 = 0.2046	x1 = 0.3086	x1 = 0.4017	x1 = 0.4943	x1 = 0.6102	x1 = 0.7057	x1 = 0.8002	x1 = 0.8978
298.15 K	2.364	1.728	1.287	1.019	0.8243	0.6718	0.5775	0.5104	0.4593
313.15 K	1.56	1.191	0.9221	0.7582	0.6325	0.5324	0.4679	0.4215	0.3866

ClC(Cl)=C(Cl)Cl + CC(C)CO
303.15 K, 101.33 kPa
Conditions	viscosity [mPa·s]
x1 = 0.1124	2.28
x1 = 0.2157	1.855
x1 = 0.3156	1.552
x1 = 0.4057	1.353
x1 = 0.5099	1.182
x1 = 0.5996	1.077
x1 = 0.7145	0.977
x1 = 0.8032	0.918
x1 = 0.908	0.857

O=[N+]([O-])c1ccccc1 + CC(C)CO
viscosity [mPa·s], 101.33 kPa
Conditions	x1 = 0.063	x1 = 0.1521	x1 = 0.2051	x1 = 0.2864	x1 = 0.376	x1 = 0.4746	x1 = 0.6038	x1 = 0.7066	x1 = 0.8442
298.15 K	2.804	2.416	2.228	2.054	1.884	1.811	1.755	1.701	1.679
303.15 K	2.423	2.072	1.956	1.819	1.677	1.596	1.538	1.495	1.517

O=[N+]([O-])c1ccccc1 + CC(C)O
viscosity [mPa·s]
Conditions	293.15 K	298.15 K	303.15 K	308.15 K	313.15 K	318.15 K	323.15 K
100 kPa, x1 = 0.081	2.112	1.849	1.625	1.428	1.247	1.101	0.9776
100 kPa, x1 = 0.16	1.892	1.679	1.494	1.333	1.166	1.039	0.9339
100 kPa, x1 = 0.2401	1.742	1.56	1.402	1.264	1.111	1.003	0.9084
100 kPa, x1 = 0.3501	1.624	1.468	1.332	1.212	1.082	0.9879	0.9036
100 kPa, x1 = 0.44	1.597	1.446	1.318	1.203	1.088	1.002	0.9207
100 kPa, x1 = 0.56	1.637	1.482	1.347	1.232	1.134	1.05	0.9715
100 kPa, x1 = 0.6499	1.703	1.54	1.401	1.281	1.187	1.105	1.024
100 kPa, x1 = 0.7399	1.795	1.622	1.475	1.349	1.256	1.171	1.087
100 kPa, x1 = 0.85	1.92	1.739	1.586	1.454	1.355	1.262	1.174
100 kPa, x1 = 0.9399	2.022	1.842	1.685	1.55	1.442	1.342	1.25
101.33 kPa, x1 = 0.0512	–	1.881	1.567	–	–	–	–
101.33 kPa, x1 = 0.1088	–	1.67	1.476	–	–	–	–
101.33 kPa, x1 = 0.1732	–	1.529	1.344	–	–	–	–
101.33 kPa, x1 = 0.2456	–	1.462	1.297	–	–	–	–
101.33 kPa, x1 = 0.3281	–	1.459	1.277	–	–	–	–
101.33 kPa, x1 = 0.4228	–	1.45	1.292	–	–	–	–
101.33 kPa, x1 = 0.5325	–	1.439	1.323	–	–	–	–
101.33 kPa, x1 = 0.661	–	1.523	1.398	–	–	–	–
101.33 kPa, x1 = 0.8145	–	1.603	1.434	–	–	–	–
